Test results: patent US20220030866A1, “CONJUGATES OF AUXIN ANALOGS” (The State of Israel, Ministry of Agriculture & Rural …, priority 2019, published 2022)

What was measured:
Format in all cases: in vivo
Arabidopsis seedlings [1] = experiment: adventitious root formation in intact etiolated Arabidopsis seedlings; conditions: intact etiolated seedlings; 50 nM, FIG. 17 legend 10 μM for one hour
Method: Adventitious roots (ARs) were induced in intact plants, using previously described procedures [Gutierrez et al., Plant Cell 2009, 21:3119-3132; Abu-Abied et al., Plant J 2012, 71:787-799; Rasmussen et al., Plant Physiol 2012, 158:1976-1987]. Briefly, seeds were germinated on MS/0.8% agar plates supplemented with 3% sucrose. The plates were kept in the dark for 2 days at 4° C., then 5 days at 22° C. in the dark, 2 days in the light, 3 days in the dark and then additional 4 days in the light to complete 2 weeks when roots were counted using a stereoscope. Sensitivity to auxin and/or auxin analogs was determined by following root elongation on vertical plates. The 4-day-old seedlings were transferred to MS plates containing 0.05 or 0.5 μM IAA and the root length was measured after 5 days, including the number of LRs in each root and calculation of the LR density. Each treatment experiment included 10-15 plants and was repeated 3 times.
In a third assay utilizing an Arabidopsis model, induction of adventitious root AR formation in intact plants was examined in the presence of 50 nM of tested compounds, which included 5 days incubation in the dark, followed by a shift to the light, according to procedures described by Sorin et al. [Plant Cell 2005, 17:1343-1359].
Conjugates prepared as described herein were evaluated in an Arabidopsis rooting model, according to procedures such as described hereinabove. Seeds were germinated and kept in the dark for 4 days. The etiolated seedlings were then incubated for 1 hour in 10 μM of each compound and then transferred to vertical MS medium-containing plates.

mung bean cuttings = experiment: rooting of mung bean cuttings (number of adventitious roots per cutting); conditions: for effect on AR formation in mung bean cuttings, in words: tested at 2, 10 or 50 μM
Method in brief: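 Readout was the number of adventitious roots per cutting in mung bean cuttings. Conjugates of 4-CPA, MCPA and 2-DP were tested alongside unconjugated IBA and 2-DP–glycine methyl ester.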

Arabidopsis seedlings [2] = experiment: root elongation inhibition in Arabidopsis seedlings; conditions: for effect on root elongation relative to control, in words: after 5 days
DR5:venus marker = experiment: auxin activity by DR5:venus fluorescence in Arabidopsis plants; conditions: 10 μM
Method: Imaging was performed using an SP8 Leica confocal microscope including solid-state lasers producing 405, 488, 514 and 552 nm light, and hybrid or PMT detectors. Objectives were either PL APO 20×/0.75, WD 0.62 mm or PL APO 63×/1.2 WD 0.3 mm. For fluorescence measurements, the Imaris™ spot detection option (Bitplane A.G.) was used to segment nuclei and calculate the average signal intensity.
One technique for assessing auxin activity of the 4-CPA amino acid conjugates utilized plants expressing nucleus-localized, fluorescent DR5:venus marker, the expression level of which is an indicator of intracellular auxin activity [Laskowski et al., PLoS Biol 2008, 6:e307]. Four days old seedlings grown on regular MS medium were transferred to plates containing 10 μM of the tested compounds and fluorescence was inspected by confocal microscope after 24 hours.
In order to assess the ability of the abovementioned sodium salts to penetrate the cells and activate an auxin response, an Arabidopsis DR5-Venus model was utilized (as described hereinabove). The plants were exposed to 10 μM of each compound for 24 hour; MS medium was used as a negative control, and the related Compounds 1p, 1r and 1t were used as positive controls.

[3] = system: Eucalyptus x trabutii cuttings; experiment: rooting of Eucalyptus x trabutii cuttings; conditions: for mean root number per cutting, E. x trabutii: K-IBA alone or with 100 μM compound; for callus formation in E. x trabutii / mean root number and mean root length, E. x trabutii, relative to IBA alone, in words / rooting rate of E. x trabutii compared with IBA alone, in words: K-IBA with 100 μM compound
Method: In order to investigate cloning of productive eucalyptus trees from cuttings, branches were excised from mature Eucalyptus x trabutii and Eucalyptus brachyphylla trees the field (in Kfar Pines, Israel)—selected based on their exceptional nectar production and honeybee attraction—placed in a humidified cooler box and brought to a climate-controlled greenhouse within 2 hours. Each cutting, 7 cm long, included three nodes with only two leaves remaining at its apical end. Two-thirds of each blade was excised to minimize evapotranspiration. The cutting bases were submerged for 1 minute in 6 grams/liter indole-3-butyric acid potassium salt (K-IBA), optionally supplemented with Compound 1s or 1t at a concentration of 100 μM. In addition, the leaves were sprayed with 100 μM of each compound in the presence of 0.05% Triton X-100 surfactant. Stock solutions of Compounds 1s and 1t were at a concentration of 100 mM in DMSO. The cuttings were planted in rooting medium containing peat, vermiculite and polystyrene flakes at a ratio of 1:2:3 respectively, on a heated rooting table under 90% humidity. Fungicides were applied to the rooting media on a weekly basis. Rooting percentage, number of roots per cutting and root length were measured after 1 and 2 weeks and after 1 and 2 months.

Arabidopsis seedlings [4] = experiment: split petri dish assay, separate shoot or root application in etiolated Arabidopsis seedlings; conditions: 10 μM; for adventitious root formation, exposure of shoots compared to exposure of roots / lateral root formation, shoot application compared with root application: split dish
Description: The observation that AR enhancement in Eucalyptus cuttings was higher when 4-CPA conjugates were applied also to the leaves (as described in Example 3) prompted further investigation into the functions of shoot-derived 4-CPA. To this end, 4-CPA or Compounds 1p and it were applied specifically to roots or shoots of five-day old etiolated Arabidopsis seedlings using a split petri dish (as depicted in FIG. 26) and the effect on root elongation, lateral root (LR) formation and adventitious root (AR) formation was evaluated.
Arabidopsis plants were germinated and grown in the dark for 5 days, then then transferred to petri dishes with a partition in the middle. Each half of these plates contained either medium alone or with 10 μM of 4-CPA or Compound 1p or 1tl. The etiolated seedlings were put on the plates with their collet region on the partition such that either the hypocotyl and cotyledons, or the root or both were in touch with the medium containing the tested compound. Adventitious roots and lateral roots were counted and the length of the primary root was measured after a week.

[5] = 4 day old seedlings, 5 days on vertical plates

## COC(=O)[C@@H](Cc1c[nH]c2ccccc12)NC(=O)COc1ccc(Cl)cc1 [Compound 1s, 4-CPA-D-Trp]
Arabidopsis seedlings [1]
  adventitious roots formed on average: 0.5±0.3
Mung bean cuttings
  effect on AR formation in mung bean cuttings, in words: induced rooting to a degree positively correlated with concentration
Arabidopsis seedlings [2]; 50 nM
  effect on root elongation relative to control, in words: did not affect root elongation
DR5:venus marker
  DR5 fluorescence (auxin activity), in words: significantly lower fluorescence
[3]
  mean root number per cutting, E. x trabutii: about 5
  callus formation in E. x trabutii: no calluses were observed
  mean root number and mean root length, E. x trabutii, relative to IBA alone, in words: no apparent effect
  rooting rate of E. x trabutii compared with IBA alone, in words: considerably higher

## COC(=O)[C@H](Cc1c[nH]c2ccccc12)NC(=O)COc1ccc(Cl)cc1 [Compound 1t, 4-CPA-L-Trp]
Arabidopsis seedlings [4]; 24 hours on split dish
  effect on root growth of application to the shoot compared with application directly to the root: comparable
Arabidopsis seedlings [4]
  adventitious root formation, exposure of shoots compared to exposure of roots: significantly more adventitious root formation
  lateral root formation, shoot application compared with root application: inhibited lateral root formation more efficiently than application to roots
Arabidopsis seedlings [1]
  adventitious roots formed on average: 4.7±0.9
Mung bean cuttings
  effect on AR formation in mung bean cuttings, in words: induced rooting only at low concentrations
Arabidopsis seedlings [2]; 50 nM
  effect on root elongation relative to control, in words: inhibited root elongation relative to control
Arabidopsis seedlings [2]; 50 nM, slight inhibition until day 3, complete from day 4
  time course of root elongation inhibition: biphasic behavior
DR5:venus marker
  DR5 fluorescence (auxin activity), in words: the most potent conjugate
  effect on root tip and root elongation zone: loss of auxin activity at the root tip, and swelling of the root elongation zone
[3]
  mean root number per cutting, E. x trabutii: about 5
  callus formation in E. x trabutii: no calluses were observed
  mean root number and mean root length, E. x trabutii, relative to IBA alone, in words: no apparent effect
  rooting rate of E. x trabutii compared with IBA alone, in words: considerably higher

## O=C(O)COc1ccc(Cl)cc1 [Compound 4-CPA, 4-chloro-phenoxyacetic acid, reference compound]
Arabidopsis seedlings [4]
  adventitious root formation, exposure of shoots compared to exposure of roots: significantly more adventitious root formation
  lateral root formation, shoot application compared with root application: inhibited lateral root formation more efficiently than application to roots
Arabidopsis seedlings [1]
  adventitious roots formed on average: 0.8±0.4
Mung bean cuttings; FIGS. 4A, 4B
  appearance of the base of mung bean cuttings: appeared swollen, but no AR developed
Mung bean cuttings
  effect on AR formation in mung bean cuttings, in words: induced a similar rooting rate only at the lowest tested concentration of 2 μM
Arabidopsis seedlings [2]; [5]
  concentration that inhibited root elongation significantly: 50 nM
  concentration that inhibited root elongation totally: 100 nM
DR5:venus marker
  DR5 fluorescence (auxin activity), in words: promoted fluorescence most strongly
  effect on root tip and root elongation zone: loss of auxin activity at the root tip, and swelling of the root elongation zone
DR5:venus marker; fluorescent intensity
  potency in promoting DR5 fluorescence relative to Compound 1t: about 2 fold
